Test results reported in patent US9725445B2, “Cycloalkyl nitrile pyrazolo pyridones as Janus kinase inhibitors” (Merck Sharp & Dohme Corp., priority 2013, dated 2017).

Legend:
JAK2 = JAK2 (Homo sapiens (Human), UniProt O60674); assay: Jak biochemical HTRF assay, JAK2; settings: HTRF biochemical assay, recombinant GST-tagged catalytic domain; read-out: JAK2 IC50
Description: Jak Biochemical HTRF Assay Protocol
The ability of compounds to inhibit the activity of JAK1, JAK2, JAK3, and Tyk2 was measured using a recombinant purified GST-tagged catalytic domain for each enzyme (Invitrogen JAK1 #M4290, JAK2 #M4290, JAK3 #M4290, Tyk2 #M4290) in an HTRF format biochemical assay. […] The basic assay protocol is as follows: First, 250 nL of diluted compounds in DMSO were dispensed into the wells of a dry 384-well Black plate (Greiner #781076) using a Labcyte Echo 555 acoustic dispenser. Subsequent reagent additions employed an Agilent Bravo. […] After equilibration, 2 μL of 10×ATP in 1× assay buffer was added to initiate the kinase reaction and the plates were shaken and then incubated at room temperature for 120 minutes. […] Plates were shaken and centrifuged and then incubated 60 minutes at room temperature and then read on a Perkin Elmer Envision (λex=337 nm, λem=665 and 615 nm, TRF delay time=20 μs). HTRF signal=10,000*665 nm reading/615 nm reading. After normalization to untreated controls, the percent inhibition of the HTRF signal at each compound concentration was calculated. The plot of percent inhibition versus the log of compound concentration was fit with a 4-parameter dose response equation to calculate IC50 values.
Final Reaction Conditions were:
Examples of the instant invention were evaluated in JAK1 and JAK2 in vitro binding assays.

JAK1 = JAK1 (Homo sapiens (Human), UniProt P23458); assay: Jak biochemical HTRF assay, JAK1; settings: HTRF biochemical assay, recombinant GST-tagged catalytic domain; read-out: JAK1 IC50
JAK1, sequence (P23458 875-1153): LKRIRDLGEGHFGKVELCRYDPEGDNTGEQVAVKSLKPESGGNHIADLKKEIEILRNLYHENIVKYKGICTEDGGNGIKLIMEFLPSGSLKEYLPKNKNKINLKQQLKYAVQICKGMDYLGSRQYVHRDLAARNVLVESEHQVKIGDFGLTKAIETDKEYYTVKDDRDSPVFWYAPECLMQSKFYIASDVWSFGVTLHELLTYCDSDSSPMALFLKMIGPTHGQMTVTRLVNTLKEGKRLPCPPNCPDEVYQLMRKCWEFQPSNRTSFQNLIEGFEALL

JAK2, sequence (O60674 849-1124): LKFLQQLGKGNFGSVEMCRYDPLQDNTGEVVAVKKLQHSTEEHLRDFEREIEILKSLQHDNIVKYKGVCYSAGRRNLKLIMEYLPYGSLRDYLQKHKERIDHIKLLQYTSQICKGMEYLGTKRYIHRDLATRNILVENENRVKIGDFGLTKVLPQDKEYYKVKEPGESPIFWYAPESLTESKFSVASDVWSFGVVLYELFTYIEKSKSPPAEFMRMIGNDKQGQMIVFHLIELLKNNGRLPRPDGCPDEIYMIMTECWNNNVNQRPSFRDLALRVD

Structure (SMILES) | IC50 (JAK2) | IC50 (JAK1)
N#C[C@@H]1C[C@H](N2CCC2)CC[C@H]1n1nc(Nc2ccc(C(F)(F)F)cc2)c2c(=O)[nH]ccc21 [Example 5-10, (1R,2R,5R)-5-(azetidin-1-yl)-2-(4-oxo-3-((4-(trifluoromethyl)phenyl)amino)-4,5-dihydro-1H-pyrazolo[4,3-c]pyridin-1-yl)cyclohexanecarbonitrile] | 940 nM | 37 nM
C[C@@H](NCC(F)(F)F)c1ccc(Nc2nn([C@H]3CCCC[C@@H]3C#N)c3cc[nH]c(=O)c23)cc1 [Example 3-66, (1S,2S)-2-{4-oxo-3-[(4-{(1R)-1-[(2,2,2-trifluoroethyl)amino]ethyl}phenyl)amino]-4,5-dihydro-1H-pyrazolo[4,3-c]pyridin-1-yl}cyclohexanecarbonitrile] | 0.32 nM | 0.2 nM
N#C[C@H]1CCC[C@@H]1n1nc(Nc2ccnc(F)c2)c2c(=O)[nH]ccc21 [Example 3-92, (1S,2S)-2-{3-[(2-fluoropyridin-4-yl)amino]-4-oxo-4,5-dihydro-1H-pyrazolo[4,3-c]pyridin-1-yl}cyclopentanecarbonitrile] | 5.7 nM | 0.64 nM
CC(C)(C)OC(=O)NCc1cccc(Nc2nn([C@H]3CCCC[C@@H]3C#N)c3cc[nH]c(=O)c23)c1 [Example 3-16, tert-butyl [3-({1-[(1S,2S)-2-cyanocyclohexyl]-4-oxo-4,5-dihydro-1H-pyrazolo[4,3-c]pyridin-3-yl}amino)benzyl]carbamate] | 3.3 nM | 1.4 nM
N#C[C@H]1CCCC[C@@H]1n1nc(Nc2cccc(Cn3nccn3)c2)c2c(=O)[nH]ccc21 [Example 3-28, (1S,2S)-2-(4-oxo-3-{[3-(2H-1,2,3-triazol-2-ylmethyl)phenyl]amino}-4,5-dihydro-1H-pyrazolo[4,3-c]pyridin-1-yl)cyclohexanecarbonitrile] | 0.93 nM | 1 nM
N#C[C@H]1CCCC[C@@H]1n1nc(Nc2ccc(Cn3ccnn3)cc2)c2c(=O)[nH]ccc21 [Example 3-46, (1S,2S)-2-(4-oxo-3-{[4-(1H-1,2,3-triazol-1-ylmethyl)phenyl]amino}-4,5-dihydro-1H-pyrazolo[4,3-c]pyridin-1-yl)cyclohexanecarbonitrile] | 0.34 nM | 0.095 nM
N#Cc1ccc(Nc2nn([C@H]3CCC[C@@H]3C#N)c3cc[nH]c(=O)c23)cc1 [Example 3-112, 4-({1-[(1S,2S)-2-cyanocyclopentyl]-4-oxo-4,5-dihydro-1H-pyrazolo[4,3-c]pyridin-3-yl}amino)benzonitrile] | 1.2 nM | 0.25 nM
N#C[C@H]1CCCC[C@@H]1n1nc(Nc2cccc(Cn3cccn3)c2)c2c(=O)[nH]ccc21 [Example 3-43, (1S,2S)-2-(4-oxo-3-{[3-(1H-pyrazol-1-ylmethyl)phenyl]amino}-4,5-dihydro-1H-pyrazolo[4,3-c]pyridin-1-yl)cyclohexanecarbonitrile] | 1.7 nM | 1.4 nM
CC(C)N1Cc2cc(Nc3nn([C@H]4CCCC[C@@H]4C#N)c4cc[nH]c(=O)c34)ccc2S1(=O)=O [Example 3-79, (1S,2S)-2-(3-{[2-(1-methylethyl)-1,1-dioxido-2,3-dihydro-1,2-benzisothiazol-5-yl]amino}-4-oxo-4,5-dihydro-1H-pyrazolo[4,3-c]pyridin-1-yl)cyclohexanecarbonitrile] | 0.48 nM | 0.071 nM
C[C@H](N[C@H]1CC[C@H](n2nc(Nc3ccc(Cl)c(F)c3)c3c(=O)[nH]ccc32)[C@@H](C#N)C1)C1CC1 [Example 5-6, (1S,2S,5S)-2-(3-((4-chloro-3-fluorophenyl)amino)-4-oxo-4,5-dihydro-1H-pyrazolo[4,3-c]pyridin-1-yl)-5-(((S)-1-cyclopropylethyl)amino)cyclohexanecarbonitrile] | 55 nM | –
C[C@H](N[C@@H]1CC[C@H](n2nc(Nc3ccc(Cl)c(F)c3)c3c(=O)[nH]ccc32)[C@@H](C#N)C1)C1CC1 [Example 5-5, (1S,2S,5R)-2-(3-((4-chloro-3-fluorophenyl)amino)-4-oxo-4,5-dihydro-1H-pyrazolo[4,3-c]pyridin-1-yl)-5-(((S)-1-cyclopropylethyl)amino)cyclohexanecarbonitrile] | 113 nM | –
CC(C)S(=N)(=O)c1ccc(Nc2nn(C3CCC[C@@H]3C#N)c3cc[nH]c(=O)c23)cc1 (single isomer, unassigned) [Example 3-109, (1S,2S)-2-[3-({4-[(S or R)-S-(1-methylethyl)sulfonimidoyl]phenyl}amino)-4-oxo-4,5-dihydro-1H-pyrazolo[4,3-c]pyridin-1-yl]cyclopentanecarbonitrile] | 0.47 nM | –
N#C[C@H]1CCCC[C@@H]1n1nc(Nc2ccc(C(O)C(F)F)cc2)c2c(=O)[nH]ccc21 (stereo partly drawn) [Example 3-70, (1S,2S)-2-(3-{[4-(2,2-difluoro-1-hydroxyethyl)phenyl]amino}-4-oxo-4,5-dihydro-1H-pyrazolo[4,3-c]pyridin-1-yl)cyclohexanecarbonitrile] | 0.61 nM | –
N#C[C@H]1CCCC[C@@H]1n1nc(Nc2ccc3c(c2)CCNC3)c2c(=O)[nH]ccc21 [Example 3-156, (1S,2S)-2-[4-oxo-3-(1,2,3,4-tetrahydroisoquinolin-6-ylamino)-4,5-dihydro-1H-pyrazolo[4,3-c]pyridin-1-yl]cyclohexanecarbonitrile] | 2.6 nM | –
CC(O)(c1ccc(Nc2nn([C@H]3CCC[C@@H]3C#N)c3cc[nH]c(=O)c23)cc1)C(F)(F)F (single isomer, unassigned) [Example 3-138, (1S,2S)-2-[4-oxo-3-({4-[(1R or 1S)-2,2,2-trifluoro-1-hydroxy-1-methylethyl]phenyl}amino)-4,5-dihydro-1H-pyrazolo[4,3-c]pyridin-1-yl]cyclopentanecarbonitrile] | 0.66 nM | –

Second part, the molecule after the results:

IC50 (JAK2) | IC50 (JAK1) | Structure (SMILES)
2.3 nM | 0.75 nM | N#C[C@H]1CCCC[C@@H]1n1nc(Nc2ccc(F)c(CN)c2)c2c(=O)[nH]ccc21 [Example 6-2, (1S,2S)-2-(3-((3-(aminomethyl)-4-fluorophenyl)amino)-4-oxo-4,5-dihydro-1H-pyrazolo[4,3-c]pyridin-1-yl)cyclohexanecarbonitrile]
1.1 nM | 0.065 nM | N#CCCn1cc(-c2ccc(Nc3nn([C@H]4CCCC[C@@H]4C#N)c4cc[nH]c(=O)c34)cc2)cn1 [Example 15-14, (1S,2S)-2-[3-({4-[1-(2-cyanoethyl)-1H-pyrazol-4-yl]phenyl}amino)-4-oxo-4,5-dihydro-1H-pyrazolo[4,3-c]pyridin-1-yl]cyclohexanecarbonitrile]
2.3 nM | 0.17 nM | Cc1cc(Nc2nn([C@H]3CCCC[C@@H]3C#N)c3cc[nH]c(=O)c23)ccc1-c1cnn(CCC#N)c1 [Example 15-18, (1S,2S)-2-[3-({4-[1-(2-cyanoethyl)-1H-pyrazol-4-yl]-3-methylphenyl}amino)-4-oxo-4,5-dihydro-1H-pyrazolo[4,3-c]pyridin-1-yl]cyclohexanecarbonitrile]
0.14 nM | 0.059 nM | N#C[C@H]1CCCC[C@@H]1n1nc(Nc2ccc3c(c2)CN([C@H]2CC[C@H](C(=O)O)CC2)S3(=O)=O)c2c(=O)[nH]ccc21 [Example 16-3, (1R,4R)-4-(5-((1-((1S,2S)-2-cyanocyclohexyl)-4-oxo-4,5-dihydro-1H-pyrazolo[4,3-c]pyridin-3-yl)amino)-1,1-dioxidobenzo[d]isothiazol-2(3H)-yl)cyclohexanecarboxylic acid]
0.27 nM | – | CC(C)C(c1ccc(Nc2nn([C@H]3CCCC[C@@H]3C#N)c3cc[nH]c(=O)c23)cc1)n1ccnn1 (single isomer, unassigned) [Example 15-24, (1S,2S)-2-[3-({4-[(1S or 1R)-2-methyl-1-(1H-1,2,3-triazol-1-yl)propyl]phenyl}amino)-4-oxo-4,5-dihydro-1H-pyrazolo[4,3-c]pyridin-1-yl]cyclohexanecarbonitrile]
14 nM | – | N#C[C@H]1CCCCC[C@@H]1n1nc(Nc2ccc3c(c2)CN(C2CCCC2)C3=O)c2c(=O)[nH]ccc21 (single isomer, unassigned) [Example 15-50, (1S,2S or 1R,2R)-2-{3-[(2-cyclopentyl-1-oxo-2,3-dihydro-1H-isoindol-5-yl)amino]-4-oxo-4,5-dihydro-1H-pyrazolo[4,3-c]pyridin-1-yl}cycloheptanecarbonitrile]
21 nM | – | CC(C)(C)S(=O)(=O)c1ccc(Nc2nn([C@@H]3CC(F)(F)C[C@@H]3C#N)c3cc[nH]c(=O)c23)cc1 (single isomer, unassigned) [Example 22-2, (1S,2R or 1R,2S)-2-(3-((4-(tert-Butylsulfonyl)phenyl)amino)-4-oxo-4,5-dihydro-1H-pyrazolo[4,3-c]pyridin-1-yl)-4,4-difluorocyclopentanecarbonitrile]
0.3 nM | – | N#C[C@@H]1CCCCC[C@H]1n1nc(Nc2ccc3c(c2)CN(C2CCCC2)C3=O)c2c(=O)[nH]ccc21 (single isomer, unassigned) [Example 15-52, (1R,2R or 1S,2S)-2-{3-[(2-cyclopentyl-1-oxo-2,3-dihydro-1H-isoindol-5-yl)amino]-4-oxo-4,5-dihydro-1H-pyrazolo[4,3-c]pyridin-1-yl}cycloheptanecarbonitrile]
